Experimental findings from ChEMBL document CHEMBL5291721, “A preclinical secondary pharmacology resource illuminates target-adverse drug reaction associations of marketed drugs” (Nat Commun, 2023) are described below.

Experiment [1] concerns the target T1, Cannabinoid receptor 1 (Homo sapiens, UniProt P21554). Type of experiment: functional, cell-based.
For a further experiment, the target named is Histamine H3 receptor (Homo sapiens, UniProt Q9Y5N1).
The target of experiment [2] is T2, Alpha-1A adrenergic receptor (Homo sapiens, UniProt P35348).
T2 sequence (P35348 whole entry): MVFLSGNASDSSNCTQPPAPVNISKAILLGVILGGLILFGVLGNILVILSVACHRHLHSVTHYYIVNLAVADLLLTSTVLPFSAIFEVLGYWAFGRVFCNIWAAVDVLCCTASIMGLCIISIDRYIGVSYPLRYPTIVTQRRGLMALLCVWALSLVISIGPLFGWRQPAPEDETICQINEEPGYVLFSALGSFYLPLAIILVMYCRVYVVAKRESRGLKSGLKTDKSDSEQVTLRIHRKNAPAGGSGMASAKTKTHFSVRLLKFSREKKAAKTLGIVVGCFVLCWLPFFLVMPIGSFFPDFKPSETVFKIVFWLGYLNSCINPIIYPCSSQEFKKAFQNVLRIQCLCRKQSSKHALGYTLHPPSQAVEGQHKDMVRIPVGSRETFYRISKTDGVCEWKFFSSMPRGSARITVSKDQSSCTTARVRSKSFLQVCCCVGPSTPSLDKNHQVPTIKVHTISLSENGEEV

In experiment [3] the target is T1, Cannabinoid receptor 1.
The target in experiment [4] is Prostaglandin G/H synthase 1 (Homo sapiens, UniProt P23219). In kind it is functional.
Experiment [5] concerns the target Sodium-dependent noradrenaline transporter (Homo sapiens, UniProt P23975).
Note: assay procedure not described here.

T1 sequence (P21554 whole entry): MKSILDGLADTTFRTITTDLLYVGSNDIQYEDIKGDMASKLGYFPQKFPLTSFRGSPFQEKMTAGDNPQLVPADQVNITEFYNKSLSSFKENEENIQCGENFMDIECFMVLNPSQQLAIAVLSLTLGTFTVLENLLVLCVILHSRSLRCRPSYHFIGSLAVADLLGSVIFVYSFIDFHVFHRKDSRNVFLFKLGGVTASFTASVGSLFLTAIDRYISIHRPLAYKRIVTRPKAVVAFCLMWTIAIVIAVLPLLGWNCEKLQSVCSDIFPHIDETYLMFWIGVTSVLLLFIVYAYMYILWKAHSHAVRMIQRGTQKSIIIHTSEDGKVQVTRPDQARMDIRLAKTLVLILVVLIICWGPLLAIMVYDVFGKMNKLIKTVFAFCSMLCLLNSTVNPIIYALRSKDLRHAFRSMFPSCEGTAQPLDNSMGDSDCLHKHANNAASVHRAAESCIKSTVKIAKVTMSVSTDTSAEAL
Chain of Prostaglandin G/H synthase 1 (P23219 whole entry): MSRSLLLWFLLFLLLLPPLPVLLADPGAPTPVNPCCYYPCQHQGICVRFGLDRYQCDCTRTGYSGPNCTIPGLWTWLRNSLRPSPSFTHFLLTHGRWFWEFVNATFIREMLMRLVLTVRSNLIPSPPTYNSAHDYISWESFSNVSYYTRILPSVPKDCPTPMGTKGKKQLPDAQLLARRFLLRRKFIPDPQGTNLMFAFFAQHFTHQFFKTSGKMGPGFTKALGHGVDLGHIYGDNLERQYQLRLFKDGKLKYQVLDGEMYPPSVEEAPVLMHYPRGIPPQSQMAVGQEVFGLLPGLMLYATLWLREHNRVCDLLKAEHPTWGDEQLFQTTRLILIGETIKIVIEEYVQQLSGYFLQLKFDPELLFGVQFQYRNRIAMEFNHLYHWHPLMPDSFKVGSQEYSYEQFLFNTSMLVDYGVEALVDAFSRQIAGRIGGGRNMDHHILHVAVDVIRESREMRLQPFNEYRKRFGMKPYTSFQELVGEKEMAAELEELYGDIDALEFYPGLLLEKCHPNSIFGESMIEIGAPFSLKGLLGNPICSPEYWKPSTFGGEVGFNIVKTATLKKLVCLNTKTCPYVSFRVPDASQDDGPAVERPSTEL
Chain of Sodium-dependent noradrenaline transporter (P23975 whole entry): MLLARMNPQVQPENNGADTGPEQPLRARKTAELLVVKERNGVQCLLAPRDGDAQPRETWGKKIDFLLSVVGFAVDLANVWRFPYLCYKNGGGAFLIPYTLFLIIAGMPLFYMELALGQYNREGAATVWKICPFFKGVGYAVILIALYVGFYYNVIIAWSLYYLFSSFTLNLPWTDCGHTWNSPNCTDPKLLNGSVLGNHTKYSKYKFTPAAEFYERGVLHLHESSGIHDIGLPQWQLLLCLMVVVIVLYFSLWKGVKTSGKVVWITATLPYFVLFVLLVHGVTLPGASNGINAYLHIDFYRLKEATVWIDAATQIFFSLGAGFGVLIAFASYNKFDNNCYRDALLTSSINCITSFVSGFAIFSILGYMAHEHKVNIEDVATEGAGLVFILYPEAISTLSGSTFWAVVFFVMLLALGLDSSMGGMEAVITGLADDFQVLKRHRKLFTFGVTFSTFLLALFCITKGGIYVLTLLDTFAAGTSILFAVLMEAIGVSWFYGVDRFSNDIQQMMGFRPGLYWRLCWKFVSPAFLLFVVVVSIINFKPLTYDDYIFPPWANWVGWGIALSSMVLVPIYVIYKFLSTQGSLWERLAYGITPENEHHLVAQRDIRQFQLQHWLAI
Chain of Histamine H3 receptor (Q9Y5N1 whole entry): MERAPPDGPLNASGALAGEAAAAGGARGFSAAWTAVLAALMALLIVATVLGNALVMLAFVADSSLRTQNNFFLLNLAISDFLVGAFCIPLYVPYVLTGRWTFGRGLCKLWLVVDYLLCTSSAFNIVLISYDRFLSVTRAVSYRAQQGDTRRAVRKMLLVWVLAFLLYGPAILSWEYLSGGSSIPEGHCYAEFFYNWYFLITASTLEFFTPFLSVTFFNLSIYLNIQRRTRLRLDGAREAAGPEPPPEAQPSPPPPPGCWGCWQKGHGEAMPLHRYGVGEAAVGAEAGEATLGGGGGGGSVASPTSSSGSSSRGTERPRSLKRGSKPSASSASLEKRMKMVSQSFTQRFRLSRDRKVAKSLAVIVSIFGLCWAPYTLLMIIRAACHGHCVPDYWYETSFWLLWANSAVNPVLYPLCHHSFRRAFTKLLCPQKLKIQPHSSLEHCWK

For the molecule `CN(C)CCOC(c1ccc(Cl)cc1)c1ccccn1` (stereo not given) [CARBINOXAMINE], the AC50 (usually the concentration giving half of the maximal activity seen) was greater than 30 µM at Cannabinoid receptor 1 [1] and 3.5 µM on Histamine H3 receptor.

For `COC(=O)CCc1ccc(OCC(O)CNC(C)C)cc1` (stereo not given) [ESMOLOL], the AC50 (in experiment [2]; at Cannabinoid receptor 1 [3]; at Histamine H3 receptor) was greater than 30 µM in each case.

On to `CC(C)C[C@H](NC(=O)[C@H](Cc1ccccc1)NC(=O)c1cnccn1)B(O)O` [BORTEZOMIB], for which the AC50 (in experiment [2]; on Cannabinoid receptor 1 [3]; at Histamine H3 receptor) was greater than 30 µM in each case.

Turning to `CC(C)(CO)c1cc2cc(NC(=O)C3(c4ccc5c(c4)OC(F)(F)O5)CC3)c(F)cc2n1C[C@@H](O)CO` [TEZACAFTOR], the AC50 on Cannabinoid receptor 1 [1] and at Histamine H3 receptor was greater than 30 µM in each case.

For the molecule `CCOCC(O)COc1ccc(NC(=O)CC[S+](C)C)cc1` (stereo not given), the AC50 on Cannabinoid receptor 1 [1] and on Histamine H3 receptor was greater than 30 µM in each case.

As for `O=NN(CCCl)C(=O)NC1CCCCC1` [LOMUSTINE], the AC50 in experiment [4] and in experiment [5] was greater than 30 µM each time.

For `NCCCCCC(=O)O` [AMINOCAPROIC ACID], the AC50 (in experiment [2]; at Cannabinoid receptor 1 [3]; on Histamine H3 receptor) was greater than 10 µM each time.

With `O=P1(N(CCCl)CCCl)NCCCO1` (stereo not given) [CYCLOPHOSPHAMIDE ANHYDROUS], the AC50 in experiment [4] and in experiment [5] was greater than 30 µM in each case.

Regarding `N[C@@H](Cc1cc(I)c(Oc2cc(I)c(O)c(I)c2)c(I)c1)C(=O)O` [LEVOTHYROXINE], the AC50 at Cannabinoid receptor 1 [1] and at Histamine H3 receptor was greater than 30 µM in each case.

In the case of `CC(=O)NC[C@H]1CN(c2ccc(N3CCOCC3)c(F)c2)C(=O)O1` [LINEZOLID], the AC50 at Cannabinoid receptor 1 [1] and at Histamine H3 receptor was greater than 30 µM throughout.

Regarding `CNC1(c2ccccc2Cl)CCCCC1=O` (stereo not given) [KETAMINE], the AC50 in experiment [4] and in experiment [5] was greater than 30 µM each time.

As to `CC(C)NCC(O)COc1ccc(CC(N)=O)cc1` (stereo not given) [ATENOLOL], the AC50 at Cannabinoid receptor 1 [3] is 26 µM; on Histamine H3 receptor it was greater than 30 µM.

In the case of `CNC1(C)C2CCC(C2)C1(C)C` (stereo not given) [MECAMYLAMINE], the AC50 (in experiment [2]; at Cannabinoid receptor 1 [3]) was greater than 10 µM in each case.

Turning to `CC[N+](CC)(CCNC(=O)C(=O)NCC[N+](CC)(CC)Cc1ccccc1Cl)Cc1ccccc1Cl` [AMBENONIUM], the AC50 on Cannabinoid receptor 1 [1] was greater than 30 µM; at Histamine H3 receptor, 21 µM.

For `CCOc1ccccc1OCCN[C@H](C)Cc1ccc(OC)c(S(N)(=O)=O)c1` [TAMSULOSIN], the AC50 on Cannabinoid receptor 1 [3] and at Histamine H3 receptor was greater than 10 µM in each case.

In the case of `CS(=O)(=O)Nc1ccc([N+](=O)[O-])cc1Oc1ccccc1` [NIMESULIDE], the AC50 (in experiment [5]; at Cannabinoid receptor 1 [1]; on Histamine H3 receptor) was greater than 30 µM throughout.

On to `NCCCNCCSP(=O)(O)O` [AMIFOSTINE], for which the AC50 on Cannabinoid receptor 1 [1] and on Histamine H3 receptor was greater than 30 µM in each case.

`CN(C)CCc1c[nH]c2ccc(CS(=O)(=O)N3CCCC3)cc12` [ALMOTRIPTAN]: the AC50 on Cannabinoid receptor 1 [1] and on Histamine H3 receptor was greater than 30 µM throughout.

As for `CC(C)/N=c1\cc2n(-c3ccc(Cl)cc3)c3ccccc3nc-2cc1Nc1ccc(Cl)cc1` [CLOFAZIMINE], the AC50 on Cannabinoid receptor 1 [1] and at Histamine H3 receptor was greater than 30 µM each time.

On to `O=C(O)COC(=O)Cc1ccccc1Nc1c(Cl)cccc1Cl` [ACECLOFENAC], for which the results for the AC50 (in experiment [2]; at Cannabinoid receptor 1 [1]; on Histamine H3 receptor) were greater than 10 µM, greater than 30 µM and greater than 10 µM, respectively.

For the molecule `O=C(O)[C@H]1/C(=C/CO)O[C@@H]2CC(=O)N21` [CLAVULANIC ACID], the AC50 at Cannabinoid receptor 1 [1] and on Histamine H3 receptor was greater than 30 µM in each case.

Regarding `CCC1(c2ccccc2)C(=O)NCNC1=O` [PRIMIDONE], the AC50 (in experiment [2]; at Cannabinoid receptor 1 [3]) was greater than 10 µM each time.

In the case of `CCN(CCO)CCCC(C)Nc1ccnc2cc(Cl)ccc12` (stereo not given) [HYDROXYCHLOROQUINE], the AC50 (in experiment [2]; at Cannabinoid receptor 1 [3]) was greater than 10 µM each time.

For `CCOC(=O)Nc1ccc(NCc2ccc(F)cc2)nc1N` [FLUPIRTINE], the AC50 at Cannabinoid receptor 1 [1] and on Histamine H3 receptor was greater than 30 µM each time.

For `C[C@H](Cn1cnc2c(N)ncnc21)OCP(=O)(O)O` [TENOFOVIR ANHYDROUS], the AC50 at Cannabinoid receptor 1 [3] and on Histamine H3 receptor was greater than 30 µM throughout.
